Laboratory results reported in patent US4481198A, “Vitamin D metabolism inhibitor” (Wisconsin Alumni Research Foundation, priority 1984, dated 1984).
Values joined by “and” are separate entries in the source; they are usually repeats but may differ in a detail not shown here. Equal values may be shown once. “Also recorded” adds a separate entry of the source.

Columns and labels:
[1] = tested on: 25-hydroxylation of vitamin D3; details: high doses required; cited from earlier work
[2] = tested on: enzymatic 25-hydroxylation of vitamin D3 (microsomal enzyme system from rat liver); assay: in vitro 25-hydroxylation of vitamin D3 in rat liver microsomal enzyme system; format: biochemical
Protocol: Male rats, obtained as weanlings (Holtzman, Madison, WI) were maintained on a vitamin D-deficient 0.5% calcium and 0.3% phosphorus diet for 4-6 weeks prior to use for in vitro 25-hydroxylation assays. Animals were fasted 18 h to deplete glycogen stores prior to study.
The microsomes were prepared by the method of Madhok and DeLuca (Biochem. J. 184, 491 (1979)). Livers were homogenized in 3 vol of 0.25M sucrose using a Potter-Elvehjem homogenizer fitted with a Teflon pestle. All centrifugation steps were done using a type 30 rotor and a Beckman L5-50 ultracentrifuge (Beckman Instruments, Lincolnwood, Ill.). […]
The work-up of the incubation mixture involved separation of the organic phase, and evaporation of solvent; the residue was then taken up in hexane:CHCl3 :MeOH (90:10:5) and applied to a Sephadex LH-20 column (Pharmacia, Piscataway, N.J.) (0.7×12 cm). […] The radioactivity in the 25-OH-D3region was used as a measure of enzyme activity and the UV peak (254 nm) as a measure of recovery. Radioactivity was determined on a Packard Instruments 3255 liquid scintillation counter using a toluene counting solution with 0.4% p-bis-[2-(5-phenyloxazolyl)]-benzene and 0.03% dimethyl-1,4-bis-[2-(5-phenyloxazolyl)]-benzene. […] The enzyme activity was expressed as picomole product (25-OH-D3) produced per milligram protein per 2 hours.

SMILES | inhibition of 25-hydroxylation of vitamin D3 by known antagonists (in words) [1] | 25-OH-D3 Formation ([2]; [S] 200 nM vitamin D3, [I] 500 nM, inhibitor preincubated at 37° C. for 10 min, controls without inhibitor 0.46, 0.24, 0.36) | inhibition of 25-OH-D3 formation from vitamin D3 (in words) ([2]; rat liver microsomal system, 500 nM inhibitor, 2.5 times the substrate concentration)
CC(C)CCC[C@@H](C)[C@H]1CC[C@H]2/C(=C/C=C3/C[C@@H](O)CCC3CO)CCC[C@]12C (stereo partly drawn) [19-hydroxy-10,19-dihydro-vitamin D3] | partial inhibition | – | –
C=C1CC[C@H](O)C/C1=C/C=C1\CCC[C@]2(C)[C@@H]([C@H](C)CCC(=NO)C(C)C)CC[C@@H]12 [24-(NOH)D3, vitamin D3-24-oxime] | – | 0.09 pmol/2h/mg protein and 0.05 pmol/2h/mg protein | markedly suppressed; also recorded: dramatically suppresses
